In paper PMC8020931, “Spectroscopic and in silico investigation of the interaction between GH1 β‐glucosidase and ginsenoside Rb1” (Food Science & Nutrition, 2021):

Biological target: T1, β‐glucosidase (GH1 family, bglB) (Paenibacillus polymyxa, UniProt P22505)
T1 construct: full-length protein encoded by bglB (448 aa, GenBank M60211.1), six His-tags, pET-28a(+), expressed in E. coli BL21(DE3)
Test: LSPR (enzyme immobilised on COOH chip, […] model); supported by fluorescence quenching, UV-Vis and CD
Assay type: binding

T1 sequence (P22505 whole entry): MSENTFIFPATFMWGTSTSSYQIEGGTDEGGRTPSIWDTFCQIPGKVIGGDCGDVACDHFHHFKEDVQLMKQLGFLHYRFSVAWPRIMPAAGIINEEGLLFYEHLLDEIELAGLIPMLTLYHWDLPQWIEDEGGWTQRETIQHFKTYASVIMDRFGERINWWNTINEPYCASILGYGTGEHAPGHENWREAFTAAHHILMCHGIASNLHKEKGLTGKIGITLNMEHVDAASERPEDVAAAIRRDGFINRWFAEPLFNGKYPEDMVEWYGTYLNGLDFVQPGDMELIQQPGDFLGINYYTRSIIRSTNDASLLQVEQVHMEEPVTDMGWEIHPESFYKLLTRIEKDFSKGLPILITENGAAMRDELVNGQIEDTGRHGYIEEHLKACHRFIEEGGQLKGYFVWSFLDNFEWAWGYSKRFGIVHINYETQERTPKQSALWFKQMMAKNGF

`CC(C)=CCC[C@](C)(O[C@@H]1O[C@H](CO[C@@H]2O[C@H](CO)[C@@H](O)[C@H](O)[C@H]2O)[C@@H](O)[C@H](O)[C@H]1O)[C@H]1CC[C@]2(C)[C@@H]1[C@H](O)C[C@@H]1[C@@]3(C)CC[C@H](O[C@@H]4O[C@H](CO)[C@@H](O)[C@H](O)[C@H]4O[C@@H]4O[C@H](CO)[C@@H](O)[C@H](O)[C@H]4O)C(C)(C)[C@@H]3CC[C@]12C` [ginsenoside Rb1] gave a Kd of 524 µM.
